Data: the CheMixHub ionic liquid set
± gives the uncertainty stated by the source.

Test: xn = mol fraction of the nth substance listed

CCCCCCCCCCCCCCCC[n+]1ccccc1.[Cl-] + OCC(O)CO + O
electrical conductivity [S/m], 100 kPa
Conditions	293.15 K	298.15 K	303.15 K	308.15 K
x1 = 3.75e-06, x2 = 0.01019	0.0022 ± 0.0011	0.0024 ± 0.0011	0.0025 ± 0.0012	0.0029 ± 0.0012
x1 = 3.92e-06, x2 = 0.02128	0.0022 ± 0.0011	0.0023 ± 0.0011	0.0024 ± 0.0011	0.0032 ± 0.0013
x1 = 4.1e-06, x2 = 0.03338	0.0019 ± 0.0011	0.0022 ± 0.0011	0.0026 ± 0.0011	0.0032 ± 0.0012
x1 = 4.29e-06, x2 = 0.04664	0.0019 ± 0.001	0.0022 ± 0.0011	–	0.0032 ± 0.0012
x1 = 7.51e-06, x2 = 0.01019	0.004 ± 0.0012	0.0042 ± 0.0011	0.0046 ± 0.0012	0.0052 ± 0.0013
x1 = 7.84e-06, x2 = 0.02128	0.0035 ± 0.0011	0.0039 ± 0.0011	0.0043 ± 0.0012	0.0054 ± 0.0012
x1 = 8.2e-06, x2 = 0.03338	0.0031 ± 0.0011	0.0037 ± 0.0011	0.0043 ± 0.0011	0.0049 ± 0.0012
x1 = 8.59e-06, x2 = 0.04664	0.003 ± 0.001	0.0036 ± 0.0011	0.0044 ± 0.0011	0.0048 ± 0.0011
x1 = 1.126e-05, x2 = 0.01019	0.0058 ± 0.0012	–	0.0065 ± 0.0012	0.0076 ± 0.0013
x1 = 1.176e-05, x2 = 0.02128	–	0.0054 ± 0.0011	0.0064 ± 0.0012	0.0077 ± 0.0012
x1 = 1.23e-05, x2 = 0.03338	0.0043 ± 0.0011	0.0052 ± 0.0011	0.0059 ± 0.0011	0.0068 ± 0.0012
x1 = 1.288e-05, x2 = 0.04664	0.004 ± 0.001	0.005 ± 0.0011	0.0058 ± 0.0011	0.0065 ± 0.0011
x1 = 1.502e-05, x2 = 0.01019	0.0076 ± 0.0011	0.0076 ± 0.0011	0.0085 ± 0.0012	–
x1 = 1.568e-05, x2 = 0.02128	0.0063 ± 0.0011	–	0.0084 ± 0.0012	–
x1 = 1.639e-05, x2 = 0.03338	0.0056 ± 0.0011	0.0066 ± 0.0011	0.0077 ± 0.0011	0.0088 ± 0.0012
x1 = 1.718e-05, x2 = 0.04664	0.0052 ± 0.0011	0.0063 ± 0.0011	0.0072 ± 0.0011	0.0083 ± 0.0011
x1 = 1.877e-05, x2 = 0.01019	0.0087 ± 0.001	0.0092 ± 0.0011	–	–
x1 = 1.96e-05, x2 = 0.02128	0.0076 ± 0.001	0.0087 ± 0.0011	–	–
x1 = 2.049e-05, x2 = 0.03338	0.0069 ± 0.0011	0.0081 ± 0.0011	0.0093 ± 0.0011	–
x1 = 2.147e-05, x2 = 0.04664	0.0063 ± 0.001	0.0078 ± 0.0011	0.0086 ± 0.0011	–
x1 = 2.253e-05, x2 = 0.01019	0.0094 ± 0.001	–	–	–
x1 = 2.351e-05, x2 = 0.02128	0.0083 ± 0.001	0.0096 ± 0.001	–	–
x1 = 2.459e-05, x2 = 0.03338	0.0079 ± 0.001	0.0089 ± 0.001	–	–
x1 = 2.577e-05, x2 = 0.04664	0.0073 ± 0.001	0.0089 ± 0.001	0.0097 ± 0.001	–
x1 = 2.743e-05, x2 = 0.02128	0.0089 ± 0.001	–	–	–
x1 = 2.869e-05, x2 = 0.03338	0.0086 ± 0.001	0.0095 ± 0.001	–	–
x1 = 3.006e-05, x2 = 0.04664	0.0079 ± 0.001	0.0095 ± 0.001	–	–
x1 = 3.135e-05, x2 = 0.02128	0.0095 ± 0.001	–	–	–
x1 = 3.279e-05, x2 = 0.03338	0.0092 ± 0.001	–	–	–
x1 = 3.436e-05, x2 = 0.04664	0.0084 ± 0.001	–	–	–
x1 = 3.688e-05, x2 = 0.03338	0.0098 ± 0.001	–	–	–
x1 = 3.865e-05, x2 = 0.04664	0.0089 ± 0.001	–	–	–
x1 = 4.295e-05, x2 = 0.04664	0.0094 ± 0.001	–	–	–

C[P+](c1ccccc1)(c1ccccc1)c1ccccc1.[Br-] + OCC(O)CO + OCCO
298.2 K, 101 kPa
Conditions	viscosity [mPa·s]
x1 = 0.2, x2 = 0	121 ± 6
x1 = 0.2, x2 = 0.4	455 ± 39
x1 = 0.2, x2 = 0.8	1894 ± 280

C[N+](C)(C)CCO.O=S(=O)([N-]S(=O)(=O)C(F)(F)F)C(F)(F)F + OCCCCCO
101 kPa
Conditions	viscosity [mPa·s]
318.15 K, x2 = 0.2149	37.3 ± 2.1
323.15 K, x2 = 0	39.3 ± 2.2
323.15 K, x2 = 0.2149	31.2 ± 1.8
328.15 K, x2 = 0.2149	26.3 ± 1.5
333.15 K, x2 = 0.2149	22.5 ± 1.3
338.15 K, x2 = 0.4145	16.11 ± 0.95
343.15 K, x2 = 0.6847	12.37 ± 0.74

C[N+](C)(C)CCO.O=S(=O)([N-]S(=O)(=O)C(F)(F)F)C(F)(F)F + OCCCO
101 kPa
Conditions	viscosity [mPa·s]
313.15 K, x2 = 0.1272	47.2 ± 2.7
313.15 K, x2 = 0.4106	30 ± 1.7
313.15 K, x2 = 0.5712	24.9 ± 1.4
318.15 K, x2 = 0	46.8 ± 2.7
328.15 K, x2 = 0	33.4 ± 1.9
333.15 K, x2 = 0.1272	23.9 ± 1.4
333.15 K, x2 = 0.2297	20.5 ± 1.2
333.15 K, x2 = 0.6946	11.27 ± 0.68
338.15 K, x2 = 0.2297	17.8 ± 1
338.15 K, x2 = 0.6946	9.76 ± 0.6
338.15 K, x2 = 0.9474	8.48 ± 0.53
343.15 K, x2 = 0.2297	15.62 ± 0.92
348.15 K, x2 = 0	19.1 ± 1.1
348.15 K, x2 = 0.5712	8.63 ± 0.54
353.15 K, x2 = 0.8367	5.98 ± 0.39

CCCC[P+](c1ccccc1)(c1ccccc1)c1ccccc1.[Br-] + OCCO
100 kPa, x2 = 0.9756
Conditions	viscosity [mPa·s]
303.15 K	21.6 ± 0.9
313.15 K	18.5 ± 0.8
323.15 K	15.5 ± 0.6
333.15 K	14 ± 0.6
343.15 K	12 ± 0.5
353.15 K	10.5 ± 0.4

C[N+](C)(C)CCO.O=S(=O)([N-]S(=O)(=O)C(F)(F)F)C(F)(F)F + OCCO
100 kPa, x1 = 0.14
Conditions	electrical conductivity [S/m]	viscosity [mPa·s]
303 K	0.381 ± 0.038	17.9 ± 0.57
323 K	0.73 ± 0.073	8.85 ± 0.28

C[P+](c1ccccc1)(c1ccccc1)c1ccccc1.[Br-] + OCCO
Conditions	viscosity [mPa·s]
298.15 K, 100 kPa, x1 = 0.1	35 ± 1.5
298.2 K, 101 kPa, x1 = 0.2	121 ± 6
303.15 K, 100 kPa, x1 = 0.33	116.5 ± 5.7
303.15 K, 100 kPa, x2 = 0.8333	56.5 ± 2.6
303.15 K, 100 kPa, x2 = 0.9091	30.5 ± 1.3
303.15 K, 100 kPa, x2 = 0.9756	17.6 ± 0.7
313.15 K, 100 kPa, x1 = 0.1	18.24 ± 0.78
313.15 K, 100 kPa, x1 = 0.33	65.5 ± 2.8
313.15 K, 100 kPa, x2 = 0.9756	13 ± 0.5
323.15 K, 100 kPa, x2 = 0.9756	9.5 ± 0.4
323.15 K, 101 kPa, x1 = 0.25	31.72 ± 0.38
333.15 K, 100 kPa, x2 = 0.9756	7.5 ± 0.3
343.15 K, 100 kPa, x2 = 0.9756	6 ± 0.3
353.15 K, 100 kPa, x2 = 0.9756	5.1 ± 0.2

O=S=O + OCCO + C[P+](c1ccccc1)(c1ccccc1)c1ccccc1.[Br-]
100 kPa
Conditions	viscosity [mPa·s]
303.15 K, x1 = 0.02458, x2 = 0.9516	18.4 ± 0.8
313.15 K, x1 = 0.01623, x2 = 0.9598	14 ± 0.6
323.15 K, x1 = 0.01303, x2 = 0.9629	10.1 ± 0.4
333.15 K, x1 = 0.01147, x2 = 0.9644	7.5 ± 0.4
343.15 K, x1 = 0.009705, x2 = 0.9661	6 ± 0.3

C[N+](C)(C)CCO.O=S(=O)([N-]S(=O)(=O)C(F)(F)F)C(F)(F)F + OCCOCCOCCOCCO
Conditions	viscosity [mPa·s]
298.15 K, 101 kPa, x2 = 0	144.8 ± 6.1

CCCCCCCCCCCCCCCC[N+](C)(C)C.[Br-] + OC[C@@H](O)[C@@H](O)[C@H](O)[C@@H](O)CO + O
viscosity [mPa·s], 100 kPa
Conditions	298.15 K	308.15 K	318.15 K
x2 = 0, x1 = 7.21e-06	0.896 ± 0.06	0.742 ± 0.06	0.617 ± 0.06
x2 = 0, x1 = 1.442e-05	0.898 ± 0.06	0.744 ± 0.06	0.617 ± 0.06
x2 = 0, x1 = 2.162e-05	0.9 ± 0.06	0.745 ± 0.06	0.617 ± 0.06

CCCCCCCCCCCCCCCC[N+](C)(C)C.[Br-] + OC[C@@H](O)[C@H](O)[C@@H](O)CO + O
viscosity [mPa·s], 100 kPa
Conditions	298.15 K	308.15 K	318.15 K
x1 = 7.19e-06, x2 = 0.002032	0.942 ± 0.06	0.778 ± 0.06	0.646 ± 0.06
x1 = 7.19e-06, x2 = 0.002472	0.952 ± 0.06	0.785 ± 0.06	0.652 ± 0.06
x1 = 7.19e-06, x2 = 0.002816	0.96 ± 0.061	0.791 ± 0.061	0.657 ± 0.06
x1 = 7.2e-06, x2 = 0.0009831	0.918 ± 0.06	0.759 ± 0.06	0.631 ± 0.06
x1 = 7.2e-06, x2 = 0.001215	0.923 ± 0.06	0.763 ± 0.06	0.634 ± 0.06
x1 = 7.2e-06, x2 = 0.00156	0.931 ± 0.06	0.769 ± 0.06	0.639 ± 0.06
x1 = 7.21e-06, x2 = 0	0.896 ± 0.06	0.742 ± 0.06	0.617 ± 0.06
x1 = 1.437e-05, x2 = 0.002971	0.97 ± 0.061	0.801 ± 0.061	0.664 ± 0.06
x1 = 1.438e-05, x2 = 0.002331	0.955 ± 0.06	0.789 ± 0.06	0.654 ± 0.06
x1 = 1.439e-05, x2 = 0.001497	0.935 ± 0.06	0.772 ± 0.06	0.641 ± 0.06
x1 = 1.439e-05, x2 = 0.002025	0.947 ± 0.06	0.783 ± 0.06	0.649 ± 0.06
x1 = 1.44e-05, x2 = 0.0008555	0.919 ± 0.06	0.76 ± 0.06	0.631 ± 0.06
x1 = 1.44e-05, x2 = 0.001291	0.929 ± 0.06	0.768 ± 0.06	0.638 ± 0.06
x1 = 1.442e-05, x2 = 0	0.898 ± 0.06	0.744 ± 0.06	0.617 ± 0.06
x1 = 2.156e-05, x2 = 0.002894	0.973 ± 0.061	0.804 ± 0.061	0.666 ± 0.06
x1 = 2.157e-05, x2 = 0.002365	0.96 ± 0.061	0.793 ± 0.06	0.657 ± 0.06
x1 = 2.158e-05, x2 = 0.002035	0.951 ± 0.06	0.786 ± 0.06	0.651 ± 0.06
x1 = 2.159e-05, x2 = 0.001618	0.941 ± 0.06	0.778 ± 0.06	0.644 ± 0.06
x1 = 2.16e-05, x2 = 0.0009365	0.924 ± 0.06	0.764 ± 0.06	0.633 ± 0.06
x1 = 2.16e-05, x2 = 0.001242	0.931 ± 0.06	0.77 ± 0.06	0.638 ± 0.06
x1 = 2.162e-05, x2 = 0	0.9 ± 0.06	0.745 ± 0.06	0.617 ± 0.06
